Values of other authors, collected in paper PMC5796656 (Journal of the American Chemical Society, 2015).

Settings: ref [26]

- τM: 243 ns
SMILES: O=C([O-])CN1CCN(CC(=O)[O-])CCN(CC(=O)[O-])CCN(CC(=O)[O-])CC1.[Gd+3] [GdDOTA]
